US12337003B2, “Pharmaceutical compositions for combination therapy” (Intercept Pharmaceuticals, Inc., priority 2015, dated 2025)

Tested on: patients with non-cirrhotic, non-alcoholic steatohepatitis
Assay: Subanalysis of clinical trial: concomitant statin use and LDL cholesterol
Format: in vivo, humans
Conditions: patients on statins at baseline; up to Week 72
Description: A subanalysis of the data obtained in Example 9 was performed to assess the effect of statins on low density lipoprotein cholesterol (LDL-C) levels. The aims of these secondary analyses were to determine the effect of OCA versus placebo in the subgroup of patients with more severe NASH and to assess the effects of concomitant statin use on serum LDL cholesterol.
The following calculations were performed for OCA treated subjects in Groups A, B, and C. • Mean and median characteristics listed below will be evaluated at baseline and at Week 72. • Laboratory values: LDL-C, high density lipoprotein cholesterol (HDL-C), alanine and aspartate aminotransferase, gamma glutamyl transferase • Age • Gender: percentage male, percentage female • Percentage diabetic • Histology: steatosis, ballooning, inflammation, fibrosis • Mean and median percentage change at Week 72 from baseline of the above characteristics will be evaluated. Results

Question: With `CC[C@H]1[C@@H](O)[C@@H]2[C@H](CC[C@]3(C)[C@@H]([C@H](C)CCC(=O)O)CC[C@@H]23)[C@@]2(C)CC[C@@H](O)C[C@@H]12` [OCA, 3α,7α-dihydroxy-6α-ethyl-5β-cholan-24-oic acid] as the compound, how does the “LDL cholesterol during OCA treatment” value read?
Answer: increased
